Laboratory results reported in ChEMBL document CHEMBL1201862, “PubChem BioAssay data set” (2004).
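Grown in 96-well plates, cells were treated for 48 hours with each compound at five concentrations. Insufficient inhibition: endpoint recorded as highest concentration tested. GI50 is the concentration that inhibits growth by half.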 Calls of active or inactive are those of the source. Cut-off read from the data, not from the text of the source: active = GI50 up to about 1.1 µM and inactive = higher.

How the values were obtained:
Assay in all cases: growth of human tumour cells (NCI), 48 h
[1] = system: DU-145
[2] = system: Malme-3M
[3] = system: SR
[4] = system: U-251
[5] = system: SN12C
[6] = system: NCI-H460
[7] = system: M14
[8] = system: K562
[9] = system: OVCAR-5
[10] = system: RXF 393
[11] = system: SK-MEL-28
[12] = system: Hs-578T
[13] = system: MDA-MB-435
[14] = system: SW-620
[15] = system: SF-268
[16] = system: HCT-15
[17] = system: CAKI-1
[18] = system: RPMI-8226
[19] = system: MDA-MB-231

| SMILES | GI50 [1] | GI50 [2] | GI50 [3] | GI50 [4] | GI50 [5] | GI50 [6] | GI50 [7] | GI50 [8] | GI50 [9] | GI50 [10] | GI50 [11] | GI50 [12] | GI50 [13] | GI50 [14] | GI50 [15] | GI50 [16] [µM] | GI50 [17] | GI50 [18] | GI50 [19] |
| --- | --- | --- | --- | --- | --- | --- | --- | --- | --- | --- | --- | --- | --- | --- | --- | --- | --- | --- | --- |
| O=c1ccn(Cc2ccccc2CCl)c(=O)[nH]1 | 32.4 µM (inactive) | 20.2 µM (inactive) | 27.7 µM (inactive) | 29.7 µM (inactive) | 27.6 µM (inactive) | > 100 µM (inactive) | 26.2 µM (inactive) | 34.8 µM (inactive) | 21.5 µM (inactive) | 24 µM (inactive) | 33.8 µM (inactive) | 29.2 µM (inactive) | 28.9 µM (inactive) | 35.5 µM (inactive) | 25.7 µM (inactive) | 18.4 | 25 µM (inactive) | – | – |
| COc1ccc(-c2onc(-c3ccc([N+](=O)[O-])cc3)c2C2=NCCCN2)cc1 | – | > 100 µM (inactive) | 45.4 µM (inactive) | > 100 µM (inactive) | > 100 µM (inactive) | 51.8 µM (inactive) | 38.8 µM (inactive) | 70.3 µM (inactive) | > 100 µM (inactive) | 88.1 µM (inactive) | 38.4 µM (inactive) | – | – | > 100 µM (inactive) | > 100 µM (inactive) | > 100 | > 100 µM (inactive) | > 100 µM (inactive) | – |
| O=C(O)Cc1cc(=O)[nH]c2c1/C(=N/O)CCC2 | – | > 100 µM (inactive) | > 100 µM (inactive) | > 100 µM (inactive) | > 100 µM (inactive) | > 100 µM (inactive) | > 100 µM (inactive) | > 100 µM (inactive) | > 100 µM (inactive) | > 100 µM (inactive) | > 100 µM (inactive) | – | – | > 100 µM (inactive) | > 100 µM (inactive) | > 100 | – | > 100 µM (inactive) | – |
| CCCCc1c2c(nc3c1CCCC3=O)C(=O)CCC2 | – | > 100 µM (inactive) | > 100 µM (inactive) | > 100 µM (inactive) | > 100 µM (inactive) | > 100 µM (inactive) | > 100 µM (inactive) | > 100 µM (inactive) | > 100 µM (inactive) | > 100 µM (inactive) | > 100 µM (inactive) | – | – | > 100 µM (inactive) | > 100 µM (inactive) | > 100 | – | > 100 µM (inactive) | – |
| O=C(O)/C(Cl)=C(\Cl)C(=O)c1ccccc1 | – | > 100 µM (inactive) | > 100 µM (inactive) | > 100 µM (inactive) | > 100 µM (inactive) | > 100 µM (inactive) | > 100 µM (inactive) | > 100 µM (inactive) | > 100 µM (inactive) | > 100 µM (inactive) | > 100 µM (inactive) | – | – | > 100 µM (inactive) | > 100 µM (inactive) | > 100 | > 100 µM (inactive) | – | – |
| Cc1ccc(C)c(N2C(=O)C(=O)C(c3nc4ccccc4o3)/C(=N\NC(=O)c3ccccc3O)C2=O)c1 (stereo unspecified) | – | 66.1 µM (inactive) | 30.1 µM (inactive) | 24.4 µM (inactive) | 26.2 µM (inactive) | – | 32.3 µM (inactive) | 16.4 µM (inactive) | 58.3 µM (inactive) | – | > 100 µM (inactive) | – | – | 29.6 µM (inactive) | 12.2 µM (inactive) | 18 | 3.75 µM (inactive) | 37.6 µM (inactive) | – |
| O=c1c2ccc(S(=O)(=O)c3ccc4c(=O)n5c6ccccc6nc5c5cccc3c45)c3cccc(c32)c2nc3ccccc3n12 | 59.6 µM (inactive) | > 100 µM (inactive) | – | 9.06 µM (inactive) | > 100 µM (inactive) | > 100 µM (inactive) | > 100 µM (inactive) | – | > 100 µM (inactive) | 14.3 µM (inactive) | > 100 µM (inactive) | – | > 100 µM (inactive) | – | 33.5 µM (inactive) | 93.5 | > 100 µM (inactive) | > 100 µM (inactive) | 19.4 µM (inactive) |
| C=C1C2Oc3ccccc3C1N(c1ccccc1)O2 (stereo unspecified) | – | 46.7 µM (inactive) | 30.5 µM (inactive) | 27.2 µM (inactive) | 23.7 µM (inactive) | 20.8 µM (inactive) | 22.1 µM (inactive) | 27.4 µM (inactive) | 80 µM (inactive) | 30.9 µM (inactive) | 58.1 µM (inactive) | – | – | 34.8 µM (inactive) | 28.8 µM (inactive) | 20.8 | 40.8 µM (inactive) | 23.7 µM (inactive) | – |
| CCN(CC)CCCNC(=O)C1COc2cc(-c3cc(=O)c4ccccc4o3)ccc2O1 (stereo unspecified) | – | 20.4 µM (inactive) | 19.9 µM (inactive) | 37.8 µM (inactive) | 45.6 µM (inactive) | > 100 µM (inactive) | 22.1 µM (inactive) | 36.6 µM (inactive) | 81.7 µM (inactive) | 39.8 µM (inactive) | 20.6 µM (inactive) | – | – | 48.5 µM (inactive) | 42.9 µM (inactive) | 53 | > 100 µM (inactive) | > 100 µM (inactive) | – |
| CN(O)C(=O)c1ccccc1 | – | > 100 µM (inactive) | > 100 µM (inactive) | > 100 µM (inactive) | > 100 µM (inactive) | > 100 µM (inactive) | > 100 µM (inactive) | > 100 µM (inactive) | > 100 µM (inactive) | > 100 µM (inactive) | > 100 µM (inactive) | – | – | > 100 µM (inactive) | > 100 µM (inactive) | – | > 100 µM (inactive) | > 100 µM (inactive) | – |
